In US8815800B2, “Moisturizing composition comprising an aminopeptide mixture” (Conopco, Inc., priority 2011, dated 2014):

Experiments:
Ex-vivo porcine skin = assay: Skin moisturization: Corneometer hydration of treated ex-vivo porcine skin
Method: Skin moisturization was assessed in terms of hydration, measured using a Corneometer (Courage+Khazaka, Germany, model CM 825, consistent with the Sorption Desorption Test described in Bioengineering of the Skin:Water and the Stratum Corneum, by G. Borroni et al., Ed by P. Elsner et al., CBC Press, Chapter 18, 1995). Instrument readings typically vary from 5 to 120 units, with small numbers (˜6) typical for nails, higher numbers typical for dry skin (˜10-20), medium numbers typical for hydrated skin (˜40) and large numbers typical for skin immediately after application of water-based humectants (above 100).
Ex-vivo porcine skin (area 1.5 cm×1.5 cm) was treated with 0.1 ml of the compositions identified in Table 1 as well as a 10% glycerol solution and deionized water as the control. Readings were taken before treatments as a baseline and at least 5 measurements were made at the same position at the time intervals shown in the table.
The relative hydration numbers were calculated as 100%*(Ct-C0)/C0, where C0 is the reading before the treatment, and Ct is the reading taken at the time t after treatment.

stratum corneum = assay: Hydration of stratum corneum: water uptake in sorption-desorption cycle (Dynamic Water Sorption Analyzer); conditions: 0.12 mL applied
Method: The hydration of the stratum corneum was estimated from hysteresis observed during the sorption-desorption cycle. Disks of stratum corneum (6 mm in diameter) were treated with 0.06 mL aminopeptide mixture, glycerol or water at both sides and dried. The samples were then placed in a Dynamic Water Sorption Analyzer and with controlled humidity. When the humidity was increased in small steps (Delta RH=10%) water uptake was measured after 3 hours equilibration for each step. Water uptake is defined as a mass of water per the dry mass of stratum corneum. Table 3 depicts the values of water uptake for sorption and desorption for stratum corneum treated with aminopeptide mixture consistent with this invention (Sample 3), glycerol and stratum corneum treated with deionized water.

[1] = Glass transition temperature by differential scanning calorimetry; assay type: physicochemical
Method: Glass transition temperatures were measured using differential scanning calorimetry (DSC Q1000, TA Instruments) at a heating rate of 10 K/min from −80 to +40° C. Glass transition temperatures were determined using TA instrument software (TA Advantage) from the middle of the heat capacity curve. The compositions comprising aminopeptide mixtures consistent with this invention were assessed against glycerol and other compositions with amino acids. Water concentration means the water concentration of the composition at the time the glass transition temperature was obtained. Water was evaporated from contained compositions by storing the same at room temperature at a relative humidity of about 33%.

- Glass transition temperature ([1]; water concentration 0 % in composition at reading): −83 °C
- Glass transition temperature ([1]; water concentration 40 % in composition at reading): −108 °C
SMILES: OCC(O)CO [Glycerol (10%), glycerol]
- Relative Hydration (Ex-vivo porcine skin; 10 minutes after treatment with 0.1 ml): 23%
- Relative Hydration (Ex-vivo porcine skin; 30 minutes after treatment with 0.1 ml): 11%
- Relative Hydration (Ex-vivo porcine skin; 60 minutes after treatment with 0.1 ml): 10%
- change in hydration with respect to the initial hydration number (Ex-vivo porcine skin; after 10, 30, and 60 minutes of application to model skin, in words): lower
- Water uptake, desorption (stratum corneum; relative humidity 20.8 %): 87.3 mg/g
- Water uptake, sorption (stratum corneum; relative humidity 20.8 %): 122.22 mg/g
- water uptake difference (desorption-sorption) (stratum corneum; relative humidity 20.8 %): 34.92 mg/g
- Water uptake, desorption (stratum corneum; relative humidity 31 %): 135.34 mg/g
- Water uptake, sorption (stratum corneum; relative humidity 31 %): 161.38 mg/g
- water uptake difference (desorption-sorption) (stratum corneum; relative humidity 31 %): -26.04 mg/g
- Water uptake, desorption (stratum corneum; relative humidity 41 %): 192.06 mg/g
- Water uptake, sorption (stratum corneum; relative humidity 41 %): 209.84 mg/g
- water uptake difference (desorption-sorption) (stratum corneum; relative humidity 41 %): -17.78 mg/g
- Water uptake, desorption (stratum corneum; relative humidity 51 %): 261.90 mg/g
- Water uptake, sorption (stratum corneum; relative humidity 51 %): 275.13 mg/g
- water uptake difference (desorption-sorption) (stratum corneum; relative humidity 51 %): -13.23 mg/g
- Water uptake, desorption (stratum corneum; relative humidity 60.2 %): 366.67 mg/g
- Water uptake, sorption (stratum corneum; relative humidity 60.2 %): 366.67 mg/g
- water uptake difference (desorption-sorption) (stratum corneum; relative humidity 60.2 %): 0 mg/g
- Water uptake, desorption (stratum corneum; relative humidity 70.35 %): 524.34 mg/g
- Water uptake, sorption (stratum corneum; relative humidity 70.35 %): 524.34 mg/g
- water uptake difference (desorption-sorption) (stratum corneum; relative humidity 70.35 %): 0 mg/g
